The values below come from patent publication US10271539B2, “Assay-ready frozen cell and method for minimizing variability in the performance thereof” (LE CENTRE NATIONALE DE LA RECHERCHE SCIENTIFIQUE (CNRS), priority 2013, dated 2019).

Entries after “also recorded” stand apart in the source; their conditions may differ. Where a SMILES comes first, the peptide text is derived from it. [ ]: non-standard residue; d: D form. The star is where a group is joined. Sta = CC(C)C[C@H](N)[C@@H](O)CC(=O)O; Isovaleryl = CC(C)CC(=O)*; Cbz = O=C(OCc1ccccc1)*

The test system of series [1] is KJL-2 cells. Kind of series: TNFα-induced firefly luciferase (FL) / Renilla luciferase (RL) reporter gene assay (DUAL-GLO) in vinblastin-treated, frozen and thawed KJL-2 cells. The series is classed as cell-based, human. As to conditions: for FL/RL ratio: scavengers/chelators of reactive oxygen species, cells treated 10 minutes. As for the experimental part: The X-axis is TNFα, ng/ml.
KJL-2 cells were used in all experiments (carried out to date). […] In order to reduce the formation of ice crystals and subsequent cell lysis, all experimental groups were frozen using the alcohol-free Biocison controlled freezing system that cools cells at approximately 1.0° C./minute.

Series [2] concerns KJL-2 cells. Kind of series: Staurosporine-induced apoptosis: FL and RL activity in KJL-2 cells. In kind it is cell-based, human. As to conditions: 10 micromolar staurosporine, over 24 hours. As for the experimental part: Briefly, untreated cells or cells treated with vinblastin as described in WO 2004/039990; US 2004/0235157 and U.S. Pat. No. 7,470,536 were treated for 10 minutes with substances that inhibit the formation of reactive oxygen species and/or scavengers of reactive oxygen species either alone or concomitantly with vinblastin treatment. The cells were then frozen using the cryopreservative medium described in WO 2004/039990; US 2004/0235157 and U.S. Pat. No. 7,470,536 with or without substances that inhibit the formation of reactive oxygen species and/or scavengers of reactive oxygen species. KJL-2 cells were used in all experiments (carried out to date). All groups were treated with vinblastin using the same procedure as described in WO 2004/039990; US 2004/0235157 and U.S. Pat. No. 7,470,536. In order to reduce the formation of ice crystals and subsequent cell lysis, all experimental groups were frozen using the alcohol-free Biocison controlled freezing system that cools cells at approximately 1.0° C./minute. All assays were performed using DUAL-GLO (Promega, Catalogue No 2920) that allows Firefly luciferase (FL) and Renilla luciferase (RL) activity to be determined sequentially in the same well of a microtiter plate.

[3] abbreviates: pre-treatment of cells with protease inhibitor and addition to the freezing medium.
[4] abbreviates: substances that reduce H2O2 (COX inhibitors).
[5] abbreviates: pre-treatment of cells with proteasome inhibitor.
Where [6] appears, read: NAC both during treatment with vinblastin and in the cryopreservative medium.

`Cl.N` [ammonium chloride]: in the series on KJL-2 cells [1] (setting [3]), the FL activity result is “did not significantly increase FL activity”.
On to `O=S(=O)(F)Cc1ccccc1` [PMSF], for which, in the series with KJL-2 cells [1] (setting [3]), the FL activity result is listed as “did not significantly increase FL activity”.
For `CN[C@@H]1C[C@H]2O[C@@](C)([C@@H]1OC)n1c3ccccc3c3c4c(c5c6ccccc6n2c5c31)C(=O)NC4` [staurosporine], in the series with KJL-2 cells [2], the FL activity entry is listed as “inhibits FL activity progressively” and the RL activity entry is recorded as “remains fairly constant”.
Consider `CS(=O)(=O)c1ccc(C2=C(c3ccccc3)C(=O)OC2)cc1` [VIOXX, rofecoxib], for which the FL activity result with KJL-2 cells [1] (setting [4]) is recorded as “increased FL activity marginally”.
Turning to MNTMPyP, the FL/RL ratio result in the series with KJL-2 cells [1] is on record as “without effect”.
Consider `Oc1ncnc2[nH]ncc12` [allopurinol], for which, in the series with KJL-2 cells [1] (100 μM allopurinol in cryopreservative, frozen one day or 5 days, vs control, FIGS. 1A and 1B), the “FL values (RLU)” value is on record as “significantly increases FL values”. The “intra-vial (vial to vial) variation in normalized RLU and normalized fold induction” value in the series on KJL-2 cells [1] (100 μM allopurinol, relative to cells treated with vinblastin alone, FIGS. 3A-4B) is listed as “reduced intra-vial variation”. The “form of the TNFα dose response curve” value with KJL-2 cells [1] (100 μM allopurinol, TNFα of 10 ng/ml and higher, FIGS. 4A and 4B) is listed as “some alteration of the form of the TNFα dose response curve”.
On to `CC(C)C[C@@H](C=O)NC(=O)[C@H](CC(C)C)NC(=O)[C@H](CC(C)C)NC(=O)OCc1ccccc1` [MG-132] (Cbz-Leu-Leu-Leu-aldehyde), for which the FL activity result in the series on KJL-2 cells [1] (setting [5]) is on record as “did not increase FL activity significantly; also recorded: reduced FL activity”.
Turning to `N[C@@H](CCC(=O)N[C@@H](CS)C(=O)NCC(=O)O)C(=O)O` [GSH, glutathione SH], the “vial-to-vial variation in normalized RLU and normalized fold induction” value in the series with KJL-2 cells [1] (1 mM GSH, FIGS. 5A and 5B) was “appeared to be effective in reducing vial-to-vial variation”; in the series on KJL-2 cells [1] (1 mM GSH, FIGS. 5A and 5B, listed as glutathione SH), “higher degree of variability in FL readings”.
Turning to `O=S(=O)(O)c1cc(O)c(O)c(S(=O)(=O)O)c1` [Tiron], in the series with KJL-2 cells [1], the FL/RL ratio result is “without effect”.
On to `OC[C@@H](O)[C@@H](O)[C@H](O)[C@H](O)CO` [Mannitol], for which the FL/RL ratio entry with KJL-2 cells [1] is listed as “without effect”.
The same measure, in the same setting: the result for `NCCNCCNCCNCCN` [tetra ethylenepentamine] reads “without effect”.
As for `CC(=O)N[C@@H](CSSC[C@H](N)C(=O)O)C(=O)O` [N-acetylcystine], in the series with KJL-2 cells [1] (5 mM NAC, FIGS. 6A and 6B), the “vial-to-vial variation in normalized RLU and normalized fold induction” value is “superior to GSH treatment in reducing vial-to-vial variation”. For the same compound, in the series on KJL-2 cells [1] (setting [6]), the “lot-to-lot variation in the performance of assay-ready frozen cells” value is “markedly reducing” and the “vial-to-vial variation in the performance of assay-ready frozen cells” value was “markedly reducing”.
For `CC(C)CC(=O)N[C@H](C(=O)N[C@H](C(=O)N[C@@H](CC(C)C)[C@@H](O)CC(=O)N[C@@H](C)C(=O)N[C@@H](CC(C)C)[C@@H](O)CC(=O)O)C(C)C)C(C)C` [Pepstatin A] (Isovaleryl-VV[Sta]A[Sta]-OH), the FL activity entry with KJL-2 cells [1] (setting [3]) was “did not significantly increase FL activity”.
Consider `CC(=O)Oc1ccccc1C(=O)O` [Acetylsalicylic acid, acetylsalicylic acid], for which, in the series with KJL-2 cells [1] (setting [4]), the FL activity result is given as “increased FL activity marginally”.
Turning to `CC1(C)CC(O)CC(C)(C)N1[O]` [TEMPOL], the FL/RL ratio result with KJL-2 cells [1] was “without effect”.
On to `CC[C@H](C)[C@H](NC(=O)[C@H]([C@@H](C)CC)N(C)C(C)=O)C(=O)N[C@H](C(=O)N[C@@H](CC(C)C)C(=O)[C@@]1(C)CO1)[C@@H](C)O` [epoxomicin], for which the FL activity entry in the series on KJL-2 cells [1] (setting [5]) is recorded as “did not increase FL activity significantly”.
Regarding `CC(=O)N[C@@H](CSC(=O)[C@]1([C@@H](O)C(C)C)NC(=O)[C@H](C)[C@@H]1O)C(=O)O` [lactacystin], the FL activity result in the series on KJL-2 cells [1] (setting [5]) was “did not increase FL activity significantly”.
